# Source: patent US7998991B2, “Neurotherapeutic treatment for sexual dysfunction” (Revaax Pharmaceuticals, LLC, priority 2001, dated 2011)
# Key:
# [1] = system: prefrontal cortex and nucleus accumbens; details: Cartmell et al., 2000b; Hertel et al. 1997; cited from earlier work
# nucleus accumbens = assay: Microdialysis of extracellular neurotransmitter levels after IP CLAV; assay type: in vivo, Sprague Dawley rats
# Description: To test this hypothesis, extracellular neurotransmitter levels in the area of the nucleus accumbens were assessed with microdialysis following CLAV treatment. The accumbens is part of the limbic forebrain best now for its association with the pathophysiology of schizophrenia and drug addiction but also thought to be involved in sensitization to early life trauma leading to the anxiety disorder PTSD or post traumatic stress disorder ([…] and Bremner 1999). Ten male, Sprague Dawley rats were anesthetized with sodium pentobarbital (50 mg/kg) and implanted with a unilateral microdialysis guide cannula aimed at the nucleus accumbens. Two days after recovery from surgery a microdialysis probe (2 mm) was lowered to the area and connected to an infusion pump through Tygon tubing. The dialysate was artificial CSF at pH 7.4 delivered at a flow rate of 2 μl/min. The first 120 min of dialysate will be discarded. Thereafter, samples were collected at 30 min intervals prior to and following IP CLAV treatment (10 μg/kg). Samples were collected into microfuge tubes containing 5 μl of 0.16 N perchloric acid to stabilize catecholamines. At the end of the study, animals were sacrificed and the brains prepared for histology to verify the site of the microdialysis probe.
# [2] = Pharmacokinetic assessment of CLAV run by IVEDCO; details: from plasma 2.5 μg/ml and CSF/plasma ratio 0.25
# Description: This treatment regimen of three doses each day for two consecutive days was chosen to acclimate the animals to the treatment procedure (day 1) and to achieve steady-state blood concentration before testing (day 2). A pharmacokinetic assessment of CLAV was run by IVEDCO (Irving Tex.) which estimated an oral dose of 1 mg/kg every three hrs would produce steady-state levels yielding an average plasma concentration of 2.5 μg/ml at the time of testing. Since the CSF/plasma ratio is 0.25 the estimated concentration in the brain would be around 0.3 μM. Given the rate of clearance of CLAV, treatments from day 1 should not have contributed to blood levels of drug on day 2.
# [3] = system: cotton-top tamarin (Saguinus oedipus); assay: Scoring of erections, mounts and female solicitations in cotton-top tamarins; assay type: in vivo; details: oral 1 mg/kg
# monoamine transporters = assay: Binding of CLAV to monoamine transporters
# monoamine oxidase A = biological target: T1, monoamine oxidase A (Homo sapiens, UniProt P21397); assay: Binding of CLAV to monoamine oxidase A
# T1 sequence (P21397 1-527): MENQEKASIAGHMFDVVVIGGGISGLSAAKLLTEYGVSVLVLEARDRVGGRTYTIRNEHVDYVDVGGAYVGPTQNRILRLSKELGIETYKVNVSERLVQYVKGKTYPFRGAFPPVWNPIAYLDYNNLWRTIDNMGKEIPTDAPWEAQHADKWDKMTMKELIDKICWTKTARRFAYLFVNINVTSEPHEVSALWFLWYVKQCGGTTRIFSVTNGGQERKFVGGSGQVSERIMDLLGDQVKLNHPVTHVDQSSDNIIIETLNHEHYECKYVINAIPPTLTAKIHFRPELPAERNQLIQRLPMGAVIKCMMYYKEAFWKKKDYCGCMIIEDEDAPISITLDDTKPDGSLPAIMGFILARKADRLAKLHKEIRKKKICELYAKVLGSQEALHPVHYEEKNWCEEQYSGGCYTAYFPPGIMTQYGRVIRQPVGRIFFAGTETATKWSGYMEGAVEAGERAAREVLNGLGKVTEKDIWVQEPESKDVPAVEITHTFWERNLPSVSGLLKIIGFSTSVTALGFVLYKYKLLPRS
# [4] = system: cotton-top tamarin (Saguinus oedipus); assay: Novel object test for anxiolytic activity in cotton-top tamarins; assay type: in vivo; details: oral 1 mg/kg, three doses a day for two days
# Description: Eight male/female pairs of tamarins with long standing pair bonds were tested following oral treatments of CLAV and vehicle (VEH) control. There were no offspring since males were vasectomized. Both members of a pair received the same treatments at the same times. Each animal served as its own control being tested both with CLAV or VEH one week apart. The treatment schedule was counter-balanced. CLAV was dissolved in water and dispensed onto a small cookie in a volume of 100 μl. A single CLAV cookie was given to each member of a pair at an approximate dose of 1 mg/kg body weight. Animals were given three CLAV cookies each day for two consecutive days. The 1st cookie was given at 8:00 AM prior to the morning feeding, the 2nd at 11:00 AM prior to the noon feeding and the 3rd at 2:00 PM prior to the late afternoon snack. All animals were scored for anti-anxiety activity 60 min after the 3rd treatment on the second day.
# Two observers blind to the treatment independently scored behavioral activity. To elicit anxious/stressful behavior a novel object was placed into the home cage. A different novel object was used for each test session and the object presentation was counter-balanced. Following the presentation of the novel object animals were scored for a duration of 15 min for: 1) latency to approach and latency to touch the object, 2) time spent in contact or proximity with the object, 3) face and head movement (frowns, head shakes and head cocks that reflect tension), 4) scratching (a validated measure of anxiety in macaques), 5) piloerection (autonomic stress response), and 6) visual scanning (nervous vigilance).
# [5] = system: well known signaling receptors or transporters; assay: Binding of CLAV to well known signaling receptors or transporters
structure (smiles),measurement,setting,value
Cc1nc2n(c(=O)c1CCN1CCC(c3noc4cc(F)ccc34)CC1)CCCC2 [risperidone],dopamine and serotonin neurotransmission in the prefrontal cortex and nucleus accumbens,[1],increase
"O=C(O)[C@H]1/C(=C/CO)O[C@@H]2CC(=O)N21 [CLAV, clavulanic acid]",DOPAC levels,"nucleus accumbens; IP 10 μg/kg, AC-1 to AC-5",only rose in two cases
same,"changes in dopamine and serotonin neurotransmission, probe outside the nucleus accumbens","nucleus accumbens; IP 10 μg/kg, lateral ventricle, bed nucleus of stria terminalis, head of the caudate, ventrolateral thalamus",little if any changes
same,"dopamine metabolite 3,4-dihydroxyphenylacetic acid (DOPAC) over time","nucleus accumbens; animal AC-1, IP 10 μg/kg",robust increase
same,dopamine metabolite homovanillic acid (HVA) over time,"nucleus accumbens; animal AC-1, IP 10 μg/kg",robust increase
same,dopamine over time,"nucleus accumbens; animal AC-1, IP 10 μg/kg",modest decrease
same,extracellular levels of serotonin over time,"nucleus accumbens; animal AC-1, IP 10 μg/kg",increase
same,serotonin metabolite 5-hydroxyindoleacetic acid (HIAA) over time,"nucleus accumbens; animal AC-1, IP 10 μg/kg",robust increase
same,estimated concentration in the brain,[2],around 0.3 μM
same,females showing solicitation behaviors,"[3]; eight females, three doses a day for two days",Two of the eight
same,males showing at least one erection in 15 min,"[3]; eight males, three doses a day for two days",All eight
same,mean erections in 15 min,"[3]; males, three doses a day for two days",2.25 erections in 15 min
same,rate of erections,"[3]; males, p<0.02 vs VEH",9.0 erections per hour
same,"mounting behavior, CLAV vs VEH",[3]; three doses a day for two days,no significant difference
same,binding to monoamine transporters,monoamine transporters,Neither the monoamine transporters nor the degradative enzyme monoamine oxidase A show binding
same,binding to monoamine oxidase A,monoamine oxidase A,Neither the monoamine transporters nor the degradative enzyme monoamine oxidase A show binding
same,"latency to approach the novel object, CLAV vs VEH",[4],no significant difference
same,"latency to touch the novel object, CLAV vs VEH",[4],no significant difference
same,"time spent in proximity to the object, CLAV vs VEH",[4],Neither was there any difference
same,"combined measures of anxious/nervous behaviors (3, 4, 5 & 6)","[4]; scored 15 min, 60 min after 3rd treatment on day 2, p<0.05 vs VEH",12.7+4.8
same,binding to well known signaling receptors or transporters,[5],does not appear to bind
